Data from ChEMBL document CHEMBL5653631, “A Potent and Selective ULK1 Inhibitor Suppresses Autophagy and Sensitizes Cancer Cells to Nutrient Stress” (iScience, 2018).
Blank lines part the entries; values can stand above or below the molecule they belong to.

How the values were obtained:
[1] = biological target: T1, Ephrin type-A receptor 1 (Homo sapiens) (UniProt P21709); test: Inhibition of human recombinant EphA1 at 500 nM related to control ULK1
T1 sequence (whole entry): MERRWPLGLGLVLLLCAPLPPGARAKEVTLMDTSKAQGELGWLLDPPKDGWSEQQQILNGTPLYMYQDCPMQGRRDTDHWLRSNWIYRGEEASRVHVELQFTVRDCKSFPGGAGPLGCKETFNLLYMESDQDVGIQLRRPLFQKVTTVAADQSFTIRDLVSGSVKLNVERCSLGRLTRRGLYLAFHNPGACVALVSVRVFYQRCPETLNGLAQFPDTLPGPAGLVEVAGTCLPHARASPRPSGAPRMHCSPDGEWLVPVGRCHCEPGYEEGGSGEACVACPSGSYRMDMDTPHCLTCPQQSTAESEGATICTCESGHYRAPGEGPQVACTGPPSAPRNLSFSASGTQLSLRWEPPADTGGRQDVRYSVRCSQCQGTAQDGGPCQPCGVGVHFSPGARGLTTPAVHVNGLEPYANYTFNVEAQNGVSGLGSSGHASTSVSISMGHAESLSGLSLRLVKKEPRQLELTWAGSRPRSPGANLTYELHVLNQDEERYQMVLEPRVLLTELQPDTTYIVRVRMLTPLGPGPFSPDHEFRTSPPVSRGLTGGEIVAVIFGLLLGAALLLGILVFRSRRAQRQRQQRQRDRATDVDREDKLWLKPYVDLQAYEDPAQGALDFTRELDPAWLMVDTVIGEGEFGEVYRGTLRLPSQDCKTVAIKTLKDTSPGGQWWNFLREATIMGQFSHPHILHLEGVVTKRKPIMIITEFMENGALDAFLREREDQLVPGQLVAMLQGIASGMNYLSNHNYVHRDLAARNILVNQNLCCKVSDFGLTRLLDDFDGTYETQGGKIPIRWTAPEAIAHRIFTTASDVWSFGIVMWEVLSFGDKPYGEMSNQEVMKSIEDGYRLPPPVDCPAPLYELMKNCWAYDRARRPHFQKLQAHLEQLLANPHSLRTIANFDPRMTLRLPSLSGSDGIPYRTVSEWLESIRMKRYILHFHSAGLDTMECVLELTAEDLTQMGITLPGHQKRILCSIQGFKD

[2] = biological target: TGF-beta receptor type-2 (Homo sapiens) (UniProt P37173); test: Inhibition of human recombinant TGFbR2 at 500 nM related to control ULK1
Chain of TGF-beta receptor type-2 (Homo sapiens) (P37173 whole entry): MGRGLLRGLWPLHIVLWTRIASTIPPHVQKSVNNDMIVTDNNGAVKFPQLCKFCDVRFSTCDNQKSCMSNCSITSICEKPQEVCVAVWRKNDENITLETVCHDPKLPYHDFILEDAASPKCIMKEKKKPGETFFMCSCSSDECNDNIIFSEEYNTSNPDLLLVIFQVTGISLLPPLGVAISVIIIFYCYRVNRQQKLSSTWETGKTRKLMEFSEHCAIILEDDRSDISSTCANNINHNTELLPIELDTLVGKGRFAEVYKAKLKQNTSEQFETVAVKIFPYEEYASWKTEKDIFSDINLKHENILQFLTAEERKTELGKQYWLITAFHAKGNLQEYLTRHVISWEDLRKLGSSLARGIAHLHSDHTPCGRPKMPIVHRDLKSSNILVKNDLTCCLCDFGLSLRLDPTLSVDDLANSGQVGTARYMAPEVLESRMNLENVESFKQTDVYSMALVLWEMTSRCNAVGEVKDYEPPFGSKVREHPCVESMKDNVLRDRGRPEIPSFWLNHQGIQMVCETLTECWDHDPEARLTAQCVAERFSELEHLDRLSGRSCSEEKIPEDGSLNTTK

[3] = biological target: SRSF protein kinase 3 (Homo sapiens) (UniProt Q9UPE1); test: Inhibition of human recombinant MSSK1 at 500 nM in presence of ATP by radiometric assay relative to control
[4] = biological target: Serine/threonine-protein kinase mTOR (Homo sapiens) (UniProt P42345); test: Inhibition of human recombinant FRAP at 500 nM in presence of ATP by radiometric assay relative to control
[5] = biological target: Protein kinase C beta type (Homo sapiens) (UniProt P05771); test: Inhibition of human recombinant PKCb at 500 nM in presence of ATP by radiometric assay relative to control
Chain of Protein kinase C beta type (Homo sapiens) (P05771 2-671 limits assumed): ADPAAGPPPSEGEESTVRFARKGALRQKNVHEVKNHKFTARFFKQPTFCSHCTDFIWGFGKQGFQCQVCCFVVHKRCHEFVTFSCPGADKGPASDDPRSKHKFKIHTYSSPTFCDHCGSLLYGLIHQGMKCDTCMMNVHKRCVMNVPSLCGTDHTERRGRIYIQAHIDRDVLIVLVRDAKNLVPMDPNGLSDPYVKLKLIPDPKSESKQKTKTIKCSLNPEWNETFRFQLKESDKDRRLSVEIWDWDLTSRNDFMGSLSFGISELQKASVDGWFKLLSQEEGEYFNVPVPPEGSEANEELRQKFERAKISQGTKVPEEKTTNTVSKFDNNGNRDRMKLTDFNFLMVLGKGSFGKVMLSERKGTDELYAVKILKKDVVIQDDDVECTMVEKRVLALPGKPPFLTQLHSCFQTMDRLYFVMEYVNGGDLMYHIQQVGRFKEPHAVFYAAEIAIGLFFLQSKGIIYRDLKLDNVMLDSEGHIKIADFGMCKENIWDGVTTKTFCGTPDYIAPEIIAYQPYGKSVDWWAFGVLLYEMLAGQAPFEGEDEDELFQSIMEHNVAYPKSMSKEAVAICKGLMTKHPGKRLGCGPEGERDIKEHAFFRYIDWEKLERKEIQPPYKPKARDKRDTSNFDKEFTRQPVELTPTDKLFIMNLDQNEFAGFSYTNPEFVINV

[6] = biological target: Ribosomal protein S6 kinase alpha-5 (Homo sapiens) (UniProt O75582); test: Inhibition of human recombinant MSK1 at 500 nM in presence of ATP by radiometric assay relative to control
Chain of Ribosomal protein S6 kinase alpha-5 (Homo sapiens) (O75582 whole entry, looked up): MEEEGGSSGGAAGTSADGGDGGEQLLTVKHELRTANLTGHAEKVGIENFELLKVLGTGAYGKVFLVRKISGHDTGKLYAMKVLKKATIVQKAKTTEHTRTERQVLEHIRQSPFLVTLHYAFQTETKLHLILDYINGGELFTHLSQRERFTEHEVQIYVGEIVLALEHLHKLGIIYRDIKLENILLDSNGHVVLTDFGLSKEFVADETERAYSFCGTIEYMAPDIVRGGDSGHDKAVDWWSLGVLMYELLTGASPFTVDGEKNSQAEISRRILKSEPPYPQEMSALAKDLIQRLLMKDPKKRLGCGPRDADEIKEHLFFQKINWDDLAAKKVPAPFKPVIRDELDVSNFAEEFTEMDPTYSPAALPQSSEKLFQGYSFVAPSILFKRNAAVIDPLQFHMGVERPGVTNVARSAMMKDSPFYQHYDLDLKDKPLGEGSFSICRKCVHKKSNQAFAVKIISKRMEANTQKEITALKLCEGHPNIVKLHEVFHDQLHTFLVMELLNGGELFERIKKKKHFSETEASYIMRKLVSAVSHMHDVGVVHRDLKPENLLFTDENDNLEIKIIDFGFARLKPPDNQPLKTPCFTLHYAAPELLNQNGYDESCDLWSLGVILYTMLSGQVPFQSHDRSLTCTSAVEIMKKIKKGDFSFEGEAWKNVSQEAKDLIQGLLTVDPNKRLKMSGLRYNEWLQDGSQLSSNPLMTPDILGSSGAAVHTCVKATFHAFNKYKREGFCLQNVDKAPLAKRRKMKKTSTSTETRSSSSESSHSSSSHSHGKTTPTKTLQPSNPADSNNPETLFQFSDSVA

[7] = biological target: Dual specificity protein kinase CLK2 (Homo sapiens) (UniProt P49760); test: Inhibition of human recombinant CLK2 at 500 nM related to control ULK1
[8] = biological target: Protein kinase C alpha type (Homo sapiens) (UniProt P17252); test: Inhibition of human recombinant PKCa at 15 nM related to control ULK1
[9] = biological target: Mitogen-activated protein kinase kinase kinase 9 (Homo sapiens) (UniProt P80192); test: Inhibition of human recombinant MLK1 at 15 nM related to control ULK1
Chain of Mitogen-activated protein kinase kinase kinase 9 (Homo sapiens) (P80192 whole entry, looked up): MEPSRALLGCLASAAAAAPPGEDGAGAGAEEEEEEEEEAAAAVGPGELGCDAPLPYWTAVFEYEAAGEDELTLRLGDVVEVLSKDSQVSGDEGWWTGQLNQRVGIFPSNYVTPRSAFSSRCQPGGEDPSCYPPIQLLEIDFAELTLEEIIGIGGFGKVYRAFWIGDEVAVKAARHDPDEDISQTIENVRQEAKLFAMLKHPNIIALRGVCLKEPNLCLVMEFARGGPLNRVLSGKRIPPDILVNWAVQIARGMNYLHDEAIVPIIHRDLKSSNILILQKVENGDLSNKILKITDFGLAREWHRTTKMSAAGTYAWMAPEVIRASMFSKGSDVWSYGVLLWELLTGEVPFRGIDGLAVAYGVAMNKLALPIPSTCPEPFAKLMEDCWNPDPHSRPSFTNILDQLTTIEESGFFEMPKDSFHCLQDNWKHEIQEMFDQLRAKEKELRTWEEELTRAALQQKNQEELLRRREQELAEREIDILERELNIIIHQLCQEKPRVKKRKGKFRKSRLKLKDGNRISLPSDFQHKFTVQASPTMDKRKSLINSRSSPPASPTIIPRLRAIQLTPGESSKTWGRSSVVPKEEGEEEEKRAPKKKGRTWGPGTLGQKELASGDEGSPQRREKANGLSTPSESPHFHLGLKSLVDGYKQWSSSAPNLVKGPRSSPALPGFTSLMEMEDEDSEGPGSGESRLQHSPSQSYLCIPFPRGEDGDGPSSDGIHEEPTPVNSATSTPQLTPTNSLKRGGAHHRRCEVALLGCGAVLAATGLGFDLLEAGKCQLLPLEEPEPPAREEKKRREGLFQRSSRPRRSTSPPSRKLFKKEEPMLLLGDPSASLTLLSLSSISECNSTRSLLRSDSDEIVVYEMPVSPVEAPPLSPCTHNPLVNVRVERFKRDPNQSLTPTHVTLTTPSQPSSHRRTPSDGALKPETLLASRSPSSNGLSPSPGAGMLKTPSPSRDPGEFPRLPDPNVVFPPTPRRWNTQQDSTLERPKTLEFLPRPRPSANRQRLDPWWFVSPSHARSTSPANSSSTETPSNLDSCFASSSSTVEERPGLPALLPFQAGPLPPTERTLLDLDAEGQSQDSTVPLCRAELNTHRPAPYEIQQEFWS

[10] = biological target: T2, Eukaryotic elongation factor 2 kinase (Homo sapiens) (UniProt O00418); test: Inhibition of human recombinant eEF2K at 15 nM in presence of ATP by radiometric assay relative to control
T2 sequence (whole entry): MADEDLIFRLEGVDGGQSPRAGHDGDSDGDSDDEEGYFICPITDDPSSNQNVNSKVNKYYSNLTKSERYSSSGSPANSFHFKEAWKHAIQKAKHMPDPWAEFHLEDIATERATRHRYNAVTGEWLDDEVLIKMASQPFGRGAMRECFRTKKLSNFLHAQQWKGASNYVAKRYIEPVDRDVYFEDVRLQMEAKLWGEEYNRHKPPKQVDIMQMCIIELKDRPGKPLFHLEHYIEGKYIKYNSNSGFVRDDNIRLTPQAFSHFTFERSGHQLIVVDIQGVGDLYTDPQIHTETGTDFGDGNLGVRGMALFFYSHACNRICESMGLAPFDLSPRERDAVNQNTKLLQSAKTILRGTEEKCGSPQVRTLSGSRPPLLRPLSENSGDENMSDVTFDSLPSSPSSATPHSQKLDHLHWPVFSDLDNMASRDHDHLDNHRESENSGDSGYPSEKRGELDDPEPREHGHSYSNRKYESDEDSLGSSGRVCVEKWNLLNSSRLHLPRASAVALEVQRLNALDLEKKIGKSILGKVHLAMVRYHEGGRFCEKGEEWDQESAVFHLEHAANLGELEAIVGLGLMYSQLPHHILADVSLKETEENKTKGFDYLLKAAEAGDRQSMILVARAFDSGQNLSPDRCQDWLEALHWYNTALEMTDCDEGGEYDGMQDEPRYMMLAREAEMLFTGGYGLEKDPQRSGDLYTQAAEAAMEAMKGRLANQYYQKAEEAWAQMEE

[11] = biological target: T3, Calcium/calmodulin-dependent protein kinase type IV (Homo sapiens) (UniProt Q16566); test: Inhibition of human recombinant CaMK4 at 40 nM related to control ULK1
T3 sequence (whole entry): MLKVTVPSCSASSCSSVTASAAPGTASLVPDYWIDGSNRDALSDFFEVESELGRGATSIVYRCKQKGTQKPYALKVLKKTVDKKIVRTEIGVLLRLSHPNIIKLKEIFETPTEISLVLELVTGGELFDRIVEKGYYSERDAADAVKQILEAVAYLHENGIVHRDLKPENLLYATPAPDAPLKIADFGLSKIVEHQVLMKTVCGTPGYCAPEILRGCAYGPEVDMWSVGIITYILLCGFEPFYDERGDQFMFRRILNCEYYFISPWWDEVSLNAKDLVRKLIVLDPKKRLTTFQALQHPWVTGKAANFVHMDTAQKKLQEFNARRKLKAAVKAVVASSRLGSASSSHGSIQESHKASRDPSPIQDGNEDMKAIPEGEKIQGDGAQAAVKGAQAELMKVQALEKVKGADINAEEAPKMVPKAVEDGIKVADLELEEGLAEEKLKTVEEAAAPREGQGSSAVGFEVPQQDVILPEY

[12] = biological target: Death-associated protein kinase 1 (Homo sapiens) (UniProt P53355); test: Inhibition of human recombinant DAPK1 at 40 nM in presence of ATP by radiometric assay relative to control
Chain of Death-associated protein kinase 1 (Homo sapiens) (P53355 whole entry, looked up): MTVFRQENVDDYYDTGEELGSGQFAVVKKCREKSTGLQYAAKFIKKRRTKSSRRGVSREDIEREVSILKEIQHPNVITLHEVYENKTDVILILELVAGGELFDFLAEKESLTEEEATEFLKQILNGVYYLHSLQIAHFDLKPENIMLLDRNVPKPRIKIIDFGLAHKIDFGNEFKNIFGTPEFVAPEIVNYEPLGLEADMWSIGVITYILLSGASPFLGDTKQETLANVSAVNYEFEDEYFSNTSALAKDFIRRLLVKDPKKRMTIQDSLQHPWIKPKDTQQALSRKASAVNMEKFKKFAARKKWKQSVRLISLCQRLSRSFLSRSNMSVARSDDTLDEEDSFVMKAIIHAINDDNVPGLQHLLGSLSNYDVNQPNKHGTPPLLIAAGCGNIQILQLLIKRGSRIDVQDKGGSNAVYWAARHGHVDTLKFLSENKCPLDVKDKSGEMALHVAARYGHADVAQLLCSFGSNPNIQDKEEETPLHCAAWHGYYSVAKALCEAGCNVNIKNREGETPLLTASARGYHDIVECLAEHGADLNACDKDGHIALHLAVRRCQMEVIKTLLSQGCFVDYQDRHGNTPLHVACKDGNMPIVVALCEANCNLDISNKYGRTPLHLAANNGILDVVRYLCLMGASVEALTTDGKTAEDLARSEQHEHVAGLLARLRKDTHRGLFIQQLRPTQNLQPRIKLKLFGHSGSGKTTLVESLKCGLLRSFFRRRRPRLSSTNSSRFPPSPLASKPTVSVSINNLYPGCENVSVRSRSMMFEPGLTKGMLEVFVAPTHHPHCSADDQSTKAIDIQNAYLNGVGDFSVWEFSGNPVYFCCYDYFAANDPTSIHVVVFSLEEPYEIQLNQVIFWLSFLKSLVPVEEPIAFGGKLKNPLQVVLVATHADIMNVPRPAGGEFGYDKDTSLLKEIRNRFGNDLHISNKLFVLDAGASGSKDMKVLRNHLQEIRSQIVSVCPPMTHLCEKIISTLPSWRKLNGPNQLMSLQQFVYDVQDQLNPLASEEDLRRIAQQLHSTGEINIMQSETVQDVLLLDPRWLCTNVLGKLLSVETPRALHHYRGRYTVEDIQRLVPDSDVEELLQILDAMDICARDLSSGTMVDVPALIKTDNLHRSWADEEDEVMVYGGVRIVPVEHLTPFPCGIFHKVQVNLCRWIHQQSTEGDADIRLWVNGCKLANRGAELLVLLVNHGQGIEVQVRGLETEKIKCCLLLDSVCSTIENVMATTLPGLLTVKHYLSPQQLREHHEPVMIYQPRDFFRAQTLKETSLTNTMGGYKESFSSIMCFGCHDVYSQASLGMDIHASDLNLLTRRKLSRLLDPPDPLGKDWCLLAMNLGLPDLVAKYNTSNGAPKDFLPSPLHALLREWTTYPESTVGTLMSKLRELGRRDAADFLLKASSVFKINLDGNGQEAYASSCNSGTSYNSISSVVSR

[13] = biological target: Protein-tyrosine kinase 6 (Homo sapiens) (UniProt Q13882); test: Inhibition of human recombinant BRK at 40 nM related to control ULK1
Chain of Protein-tyrosine kinase 6 (Homo sapiens) (Q13882 whole entry, looked up): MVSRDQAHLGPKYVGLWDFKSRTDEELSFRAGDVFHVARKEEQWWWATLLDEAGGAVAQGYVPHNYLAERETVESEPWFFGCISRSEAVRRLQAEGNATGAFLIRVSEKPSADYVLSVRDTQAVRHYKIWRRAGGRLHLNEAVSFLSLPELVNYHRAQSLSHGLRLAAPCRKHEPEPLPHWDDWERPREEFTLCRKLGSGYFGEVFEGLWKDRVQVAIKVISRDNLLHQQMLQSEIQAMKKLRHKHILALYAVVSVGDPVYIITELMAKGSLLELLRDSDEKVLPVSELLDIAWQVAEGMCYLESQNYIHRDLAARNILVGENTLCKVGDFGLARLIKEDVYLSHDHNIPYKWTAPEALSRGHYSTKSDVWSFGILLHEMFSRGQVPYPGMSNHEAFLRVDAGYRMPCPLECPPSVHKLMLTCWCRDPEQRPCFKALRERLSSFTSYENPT

fold change (FC) [1]: 0.18 | fold change (FC) [2]: 0.03 | inhibition [3]: 15% | inhibition [4]: 0% | inhibition [5]: 7% | inhibition [6]: 11% | fold change (FC) [7]: 0.09
SMILES: CNC(=O)c1ccccc1Oc1nc(Nc2cc(OC)c(OC)c(OC)c2)ncc1Br

fold change (FC) [8]: 0.08 | fold change (FC) [9]: 0 | inhibition [10]: 10%
SMILES: CC(C)[C@H](NC(=O)c1cc(-c2cnn3cc(-c4ccc(OCCN5CCCCC5)cc4)cnc23)cs1)C(F)(F)F

fold change (FC) [11]: 0 | fold change (FC) [13]: 0
SMILES: O=C(N[C@@H](C1CC1)C(F)(F)F)c1cc(-c2cnn3cc(-c4ccc(F)cc4)cnc23)cs1
inhibition [12]: 0%
